According to patent publication US20190380937A1, “PROCESS FOR DEPIGMENTING KERATIN MATERIALS USING THIOPYRIDINONE COMPOUNDS” (L'OREAL, priority 2015, published 2019):
Like-named read-outs stand apart in the source and are kept apart here.

What was measured:
normal human melanocytes = experiment: Depigmenting activity (reduction of melanin production) in normal human melanocytes in vitro; format: cell-based; conditions: Melanocyte, read-out: IC50 (concentration at which 50% decrease in melanin synthesis is achieved)
Description: The measurement of the depigmenting activity (reduction of melanin production) of compounds of formula (I) was carried out by assaying normal human melanocytes in vitro as follows.
First of all, normal human melanocytes are cultured and dispensed into 384 wells. After 24 hours, the culture medium was replaced with a medium containing compounds of formula (I) to be evaluated. The cells were incubated for 72 hours before measuring the final optical density, which measures the amount of melanin produced by the melanocytes. A dose-effect is performed using a wide concentration range of the compounds evaluated. Thus, by making the concentrations and the melanin measurements correspond, it is possible to determine an IC50 in μM: concentration at which 50% decrease in melanin synthesis is achieved. The highest concentration used in the test is 200 μM.

[1] = system: pigmented reconstructed epidermis; experiment: Test on pigmented reconstructed epidermis samples (melanin quantified by image analysis); format: cell-based, human; conditions: pValue<0.05, control DMSO
Description: […] EP 1 878 790). The control is DMSO. The melanin was quantified by image analysis on histological slices after staining with Fontana Masson dye. Each sample of coloured epidermis is photographed over its entire length using a camera connected to a microscope. The melanin is thresholded and the number of melanin pixels is measured in each field using automated image analysis software. A non-parametric statistical test is performed in order to determine the significance of the measurements (Mann-Whitney test).
The pigmented reconstructed epidermis standard study model was published by:
Regnier M, Duval C, Galey J B, Philippe M, Lagrange A, Tuloup R, Schmidt R, Cellular and Molecular Biology, 1999, 45, 7, 969-980: “Keratinocyte-Melanocyte co-cultures and pigmented reconstructed human epidermis: models to study modulation of melanogenesis”.

[2] = Homo sapiens, another campaign, comparison with closest prior art compound of FR 2 968 661
[3] = normal human melanocytes, 72 hours incubation, optical density, highest concentration 200 μM

SMILES	IC50 (normal human melanocytes; [2]) [µM]	IC50 (normal human melanocytes; [3]) [µM]	depigmenting activity (melanin quantification, Mann-Whitney test) ([1]; at 300 μM)	depigmenting activity (melanin quantification, Mann-Whitney test) ([1]; at 100 μM)
CCOC(=O)C(C)NC(=O)c1ccc[nH]c1=S (stereo not shown) [reference compound]	37.4			
CCOC(=O)CN(C)C(=O)c1ccc[nH]c1=S [Compound 4, Ethyl N-methyl-N-[(2-thioxo-1,2-dihydropyridin-3-yl)carbonyl]glycinate]		67.6	Significant depigmenting activity	
CN(CC(=O)O)C(=O)c1ccc[nH]c1=S [Compound 2, N-methyl-N-[(2-thioxo-1,2-dihydropyridin-3-yl)carbonyl]glycine]		5.27		Significant depigmenting activity
CCOC(=O)CNC(=O)c1ccc[nH]c1=S [Compound 3, Ethyl N-[(2-thioxo-1,2-dihydropyridin-3-yl)carbonyl]glycinate]	20.8	36.8	Significant depigmenting activity	
O=C(O)CNC(=O)c1ccc[nH]c1=S [Compound 1, N-[(2-thioxo-1,2-dihydropyridin-3-yl)carbonyl]glycine]		11.4		Significant depigmenting activity
